From US4923865A, “Substituted 1-(1H-imidazol-4-yl)alkyl-benzamides as anti-ischemics and as alpha-2-adrenergic receptor agonists” (U C B Societe Anonyme, priority 1988, dated 1990)

Experiments:
[1] = target: T1, α2 -adrenergic receptors (Rattus norvegicus, UniProt P22909); test: Competitive binding assay with [^3 H]clonidine on rat brain membranes; settings: 30 minutes incubation, read-out: IC50 (50% inhibition of the binding of [^3 H]clonidine)
T1 construct: three different preparations of rat brain membranes; from tissue; host or cells: rat brain membranes
T1 sequence (P22909 1-465): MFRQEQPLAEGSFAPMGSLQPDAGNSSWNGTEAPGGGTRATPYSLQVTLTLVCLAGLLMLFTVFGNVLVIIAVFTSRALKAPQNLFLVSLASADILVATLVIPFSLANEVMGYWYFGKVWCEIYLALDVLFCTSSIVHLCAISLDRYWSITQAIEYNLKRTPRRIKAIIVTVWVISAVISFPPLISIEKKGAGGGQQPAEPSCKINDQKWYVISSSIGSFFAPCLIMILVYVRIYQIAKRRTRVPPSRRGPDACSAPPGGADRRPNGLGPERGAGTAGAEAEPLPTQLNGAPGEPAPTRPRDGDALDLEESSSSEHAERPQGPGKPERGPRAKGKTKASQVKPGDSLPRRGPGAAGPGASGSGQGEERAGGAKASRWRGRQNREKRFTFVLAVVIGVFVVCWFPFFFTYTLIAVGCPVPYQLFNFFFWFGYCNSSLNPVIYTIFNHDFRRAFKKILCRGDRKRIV
Excerpt: (a) Competitive binding assay with a radioligand. The object of competitive binding assays is to measure the affinity of the compounds of the invention for α2 -adrenoceptors. These conventional experiments involve the competition for binding to α2 -adrenergic receptors between the tested compound on the one hand, and on the other hand, a radioligand which, in this particular case of α2 -adrenergic receptors, is the [^3 H]clonidine which is known to be a specific α2 -adrenergic agonist.
The method used is that of D. C. U'PRICHARD et al., Mol. Pharmacol. 13, (1977), 454-473.
The displacement curves for binding of [^3 H]clonidine have been determined with nine concentrations of compound A, ranging from 10^-4 to 10^-10 mole/l, and with three different preparations of rat brain membranes. The samples were incubated for 30 minutes, and then filtered under reduced pressure using a Whatman GF/B filter. The filters are washed three times with 5 ml of Tris-HCl buffer (pH 7.5 at 0° C.) and then dried for one minute. The radioactivity is measured in an Econofluor (-NEN Corp.) medium. The [^3 H]clonidine (25.5 Ci/mmole) used is provided by Amersham.
The affinity of compound A for the α2 -adrenergic receptors has been calculated from the displacement curves of the [^3 H]clonidine. […]

[2] = test system: cerebral ischemia; test: Unilateral, multifocal cerebral ischemia in the rat (microsphere embolization); type: in vivo, male Sprague-Dawley SPF rats
Excerpt: (b) Unilateral, multifocal cerebral ischemia in the rat. In awake, male Sprague-Dawley SPF rats, aged from 8 to 9 months, a permanent, unilateral cerebral ischemia (or embolization) is caused by introduction of 2000 microspheres (provided by 3M, St. Paul, U.S.A.; diameter 58±2 μm) into the right carotid stream (A. M. BRALET et al., Stroke, 10, (1979), 34-38; M. LE PONCIN-LAFITTE et al., Pathol. Biol. (Paris), 30, (1982), 289-293) after the permanent ligature of the right pterygopalatine artery (Y. KIYOTA et al., Pharmacol. Biochem. Behav. 24, (1986), 687-692).
The compound to be studied is administered for the first time 30 minutes before, and for the second time 30 minutes after embolization, while the control animals receive only a physiological salt solution. The animals are then allowed to rest. After 6 days of recovery, the surviving animals are measured for:
(1) the residual neurological deficit obtained from the test of posture and gait of the animals (Test A, maximum score: 4 points). This test evaluates:
(a) abnormal positioning of the hind paws (S. IRWIN, Psychophamacologia (Berlin), 13, (1968), 222-257);
(b) contralateral inclination of the body during locomotion;
(c) homolateral longitudinal flexion of the body, and
(d) abnormal gait (B. KOLB et al., loc. cit.).
(2) The sensorimotor functions (spontaneous motility, grasping reflex, placing reactions both visual and by loss of support (Test B, maximum score: 10 points); (C. CAPDEVILLE et al., loc. cit.).
(3) The lateralized sensorimotor response (on the contralateral side) (Test C, maximum score: 3 points). This is evaluated by combining the measurements of visual placing reflex, head orientation relfex towards a lateral sensory stimulus, and the cutaneous plantar reflex (C. CAPDEVILLE et al., loc. cit.; J. F. MARSHALL et al., Science (Washington), 174, (1971), 523-525).
(4) Tactile extinction on the left side (Test D, maximum score: 300 points). By contrast with the other tests mentioned above, for which the deficit is lower when the score is higher, the deficit is here more pronounced when the score approaches 300 (T. SCHALLERT et al., Pharmacol. Biochem. Behav. 16, (1982), 455-462).
On the seventh day of recovery, the edema present in various ipsilateral cerebral structures is also measured (M. LE PONCIN-LAFITTE et al., loc. cit.).
Table IV gives the results obtained in tests A to D for compound A, administered intraperitoneally at the dose of 0.76 μg/kg (3.2 nmoles/kg), i.e. The mean of the neurological scores determined for the whole group of surviving animals of the control group and of the treated group after 6 days of recovery. Also indicated in the Table is the mean variation (in g) of body weight measured on the 7th day of recovery. The statistical significant (P) of the difference between the mean values calculated for the control animals and for the treated animals is evaluated by the Mann-Whitney test.
In Table V, the quantity of water (as an average of the percentage) retained in various ipsilateral cerebral structures in the control animals and in the treated animals surviving at the 7th day after embolization, is indicated.

[3] = test system: myocardial ischemia; test: Artificially induced acute coronary insufficiency in an awake dog (ST-segment elevation); type: in vivo; settings: Canis lupus familiaris, 0.1 h, intravenous, 6 min coronary occlusion, groups of ten animals, read-out: DE20 (dose producing a mean reduction of at least 20% of the ST-segment elevation)
Excerpt: Because of the reduction in the oxygen supply which results from this, the occlusion produces myocardial ischemia which is expressed on the electrocardiogram by a reproducible and quantifiable ST-segment elevation. The anti-ischemic action of a compound results in a reduction of the magnitude of the ST-segment elevation. (P. R. MAROKO and E. BRAUNWALD, Circulation, 53, (1976, Suppl. I), 162-168; S. E. EPSTEIN et al., Circulation, 53, (1976, Suppl. I), 191-197).

For `Cl.NC(=O)c1cccc(Cc2c[nH]cn2)c1O` [A, 2-hydroxyl-3-[(1H-imidazol-4-yl)methyl]-benzamide hydrochloride], which IC50 [1] is on record?
The IC50 was 8.9 nM.

And the weight variation ([2]; 0.76 μg/kg i.p., 7th day of recovery, control -5.7, P <0.05)?
Its weight variation is “+0.8 g”.

What about the “Mean neurological score 6 days after embolization, test C” value ([2]; 0.76 μg/kg i.p., lateralized sensorimotor response, maximum 3 points, control 1.0, P <0.005) of the same compound?
The value was 2.0.

What about the “Mean neurological score 6 days after embolization, test A” value ([2]; 0.76 μg/kg i.p., posture and gait, maximum 4 points, control 1.0, P <0.01) of the same compound?
Its value is 2.0.

What about the “Mean neurological score 6 days after embolization, test B” value ([2]; 0.76 μg/kg i.p., sensorimotor functions, maximum 10 points, control 7.3, P <0.05) of the same compound?
Its value is 8.0.

What about the “Mean neurological score 6 days after embolization, test D” value ([2]; 0.76 μg/kg i.p., tactile extinction, maximum 300 points, higher = greater deficit, control 243, P <0.05) of the same compound?
The value was 96.

And the “Quantity of water in ipsilateral diencephalon” value ([2]; 7th day after embolization, control 77.04, P < 0.05)?
The value was 76.32 average %.

What about the “Quantity of water in ipsilateral hippocampus” value ([2]; 7th day after embolization, control 80.20, P < 0.05) of the same compound?
Its value is 79.79 average %.

And the “Quantity of water in ipsilateral cortex” value ([2]; 7th day after embolization, control 81.33, P < 0.01)?
Its value is 80.36 average %.

What about the “Quantity of water in ipsilateral corpus striatum” value ([2]; 7th day after embolization, control 81.57, P < 0.005) of the same compound?
Its value is 80.05 average %.

And the ED20 [3]?
The ED20 was 0.03 µmol/kg.
